In US9593108B2, “Compounds and methods for antiviral treatment” (PTC Therapeutics, Inc., priority 2009, dated 2017):

Legend:
[1] = tested on: HCV replicon RNA (GenBank Accession No. AJ242654); test: HCV Replicon Assay (replicon RNA reduction and/or Fluc reporter signal); assay type: cell-based, Hepatitis C virus; conditions: Hepatitis C virus, 72 h, replicon-containing cells cultured with test compound for up to 3 days
Summary of the method: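 IC50 values mostly reflect the drop in replicon RNA, though Fluc reporter signal may also be used. Compound incubated with cells carrying the bicistronic replicon for as long as 3 days; interferon served as positive control.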

Compound: Cc1cnc2c(c1)c(C#N)c(-c1ccc(S(=O)(=O)N[C@H](C)C(F)(F)F)cn1)n2C1CCCC1 [Cpd 254, 6-(3-cyano-1-cyclopentyl-5-methyl-1H-pyrrolo[2,3-b]pyridin-2-yl)-N-[(2R)-1,1,1-trifluoropropan-2-yl]pyridine-3-sulfonamide]
- IC50 [1]: < 500 nM
- melting point: 155 to 162 °C

Compound: Cc1cnc2c(c1)c(C#N)c(-c1ccc(S(=O)(=O)NC3(C)CC3)cn1)n2C1CCCC1 [Cpd 256, 6-(3-cyano-1-cyclopentyl-5-methyl-1H-pyrrolo[2,3-b]pyridin-2-yl)-N-(1-methylcyclopropyl)pyridine-3-sulfonamide]
- IC50 [1]: 500 to 2000 nM
- melting point: 143 to 153 °C

Compound: COc1cnc2c(c1)c(C#N)c(-c1ccc(S(=O)(=O)N(C(C)=O)[C@@H](C)C(F)(F)F)cn1)n2C1CCCC1 [Cpd 257, N-{[6-(3-cyano-1-cyclopentyl-5-methoxy-1H-pyrrolo[2,3-b]pyridin-2-yl)pyridin-3-yl]sulfonyl}-N-[(2S)-1,1,1-trifluoropropan-2-yl]acetamide]
- IC50 [1]: < 500 nM
- melting point: 169 to 173 °C

Compound: CCc1nc2c(cc1OC)c(C#N)c(-c1ccc(S(=O)(=O)N[C@@H](C)C(F)(F)F)cn1)n2C1CCC1 [Cpd 258, 6-(3-cyano-1-cyclobutyl-6-ethyl-5-methoxy-1H-pyrrolo[2,3-b]pyridin-2-yl)-N-[(2S)-1,1,1-trifluoropropan-2-yl]pyridine-3-sulfonamide]
- IC50 [1]: < 500 nM
- melting point: 186 to 189 °C

Compound: CCc1nc2c(cc1OC)c(C#N)c(-c1ccc(S(=O)(=O)N[C@H](C)C(F)(F)F)cn1)n2C1CCC1 [Cpd 259, 6-(3-cyano-1-cyclobutyl-6-ethyl-5-methoxy-1H-pyrrolo[2,3-b]pyridin-2-yl)-N-[(2R)-1,1,1-trifluoropropan-2-yl]pyridine-3-sulfonamide]
- IC50 [1]: 2000 to 5000 nM
- melting point: 189 to 199 °C

Compound: CCC(NS(=O)(=O)c1ccc(-c2c(C#N)c3cc(Cl)cnc3n2C2CCCC2)nc1)C(F)(F)F (centres unmarked) [Cpd 260, 6-(5-chloro-3-cyano-1-cyclopentyl-1H-pyrrolo[2,3-b]pyridin-2-yl)-N-(1,1,1-trifluorobutan-2-yl)pyridine-3-sulfonamide]
- IC50 [1]: < 500 nM
- melting point: 170 to 174 °C

Compound: CCC(NS(=O)(=O)c1ccc(-c2c(C#N)c3cc(OC)cnc3n2C2CCC2)nc1)C(F)(F)F (centres unmarked) [Cpd 261, 6-(3-cyano-1-cyclobutyl-5-methoxy-1H-pyrrolo[2,3-b]pyridin-2-yl)-N-(1,1,1-trifluorobutan-2-yl)pyridine-3-sulfonamide]
- IC50 [1]: < 500 nM
- melting point: 185 to 190 °C

Compound: Cc1cnc2c(c1)c(C#N)c(-c1ccc(S(=O)(=O)N[C@H](C)C(F)(F)F)cc1)n2C1CCCC1 [Cpd 262, 4-(3-cyano-1-cyclopentyl-5-methyl-1H-pyrrolo[2,3-b]pyridin-2-yl)-N-[(2R)-1,1,1-trifluoropropan-2-yl]benzenesulfonamide]
- IC50 [1]: < 500 nM
- melting point: 189 to 195 °C

Compound: Cc1cnc2c(c1)c(C#N)c(-c1ccc(S(=O)(=O)N[C@@H](C)C(F)(F)F)cc1)n2C1CCCC1 [Cpd 263, 4-(3-cyano-1-cyclopentyl-5-methyl-1H-pyrrolo[2,3-b]pyridin-2-yl)-N-[(2S)-1,1,1-trifluoropropan-2-yl]benzenesulfonamide]
- IC50 [1]: < 500 nM
- melting point: 191 to 196 °C

Compound: Cc1cnc2c(c1)c(C#N)c(-c1ccc(NC(C)C)cc1)n2C1CCC1 [Cpd 264, 1-cyclobutyl-5-methyl-2-[4-(propan-2-ylamino)phenyl]-1H-pyrrolo[2,3-b]pyridine-3-carbonitrile]
- IC50 [1]: < 500 nM
- melting point: 193 to 199 °C

Compound: Cc1cnc2c(c1)c(C#N)c(-c1ccc(NC(=O)C(C)C)cc1)n2C1CCC1 [Cpd 265, N-[4-(3-cyano-1-cyclobutyl-5-methyl-1H-pyrrolo[2,3-b]pyridin-2-yl)phenyl]-2-methylpropanamide]
- IC50 [1]: 500 to 2000 nM
- melting point: 134 to 140 °C

Compound: Cc1cnc2c(c1)c(C#N)c(-c1ccc(NC(=O)NC(C)C)cc1)n2C1CCC1 [Cpd 266, 1-[4-(3-cyano-1-cyclobutyl-5-methyl-1H-pyrrolo[2,3-b]pyridin-2-yl)phenyl]-3-propan-2-ylurea]
- IC50 [1]: < 500 nM
- melting point: 224 to 231 °C

Compound: Cc1cnc2c(c1)c(C#N)c(-c1ccc(NS(=O)(=O)C(C)C)cc1)n2C1CCC1 [Cpd 267, N-[4-(3-cyano-1-cyclobutyl-5-methyl-1H-pyrrolo[2,3-b]pyridin-2-yl)phenyl]propane-2-sulfonamide]
- IC50 [1]: 500 to 2000 nM
- melting point: 155 to 164 °C

Compound: COc1cnc2c(c1)c(C#N)c(-c1ccc(S(=O)(=O)N[C@H](C)C(F)(F)F)cn1)n2C1CCCC1 [Cpd 268, 6-(3-cyano-1-cyclopentyl-5-methoxy-1H-pyrrolo[2,3-b]pyridin-2-yl)-N-[(2R)-1,1,1-trifluoropropan-2-yl]pyridine-3-sulfonamide]
- IC50 [1]: 500 to 2000 nM
- melting point: 181 to 184 °C

Compound: C[C@H](NS(=O)(=O)c1ccc(-c2c(C#N)c3cc(Cl)cnc3n2-c2ncccn2)nc1)C(F)(F)F [Cpd 270, 6-[5-chloro-3-cyano-1-(pyrimidin-2-yl)-1H-pyrrolo[2,3-b]pyridin-2-yl]-N-[(2S)-1,1,1-trifluoropropan-2-yl]pyridine-3-sulfonamide]
- IC50 [1]: < 500 nM
- melting point: 223 to 225 °C

Compound: COc1cnc2c(c1)c(C#N)c(-c1ccc(S(=O)(=O)NC(C)(C)C)cn1)n2C1CCC1 [Cpd 271, N-tert-butyl-6-(3-cyano-1-cyclobutyl-5-methoxy-1H-pyrrolo[2,3-b]pyridin-2-yl)pyridine-3-sulfonamide]
- IC50 [1]: 500 to 2000 nM
- melting point: 174 to 176 °C

Compound: CSc1cnc2c(c1)c(C#N)c(-c1ccc(S(=O)(=O)N[C@@H](C)C(F)(F)F)cn1)n2C1CCCC1 [Cpd 272, 6-[3-cyano-1-cyclopentyl-5-(methylsulfanyl)-1H-pyrrolo[2,3-b]pyridin-2-yl]-N-[(2S)-1,1,1-trifluoropropan-2-yl]pyridine-3-sulfonamide]
- IC50 [1]: < 500 nM
- melting point: 168 to 172 °C

Compound: CSc1cnc2c(c1)c(C#N)c(-c1ccc(S(=O)(=O)N[C@H](C)C(F)(F)F)cn1)n2C1CCCC1 [Cpd 273, 6-[3-cyano-1-cyclopentyl-5-(methylsulfanyl)-1H-pyrrolo[2,3-b]pyridin-2-yl]-N-[(2R)-1,1,1-trifluoropropan-2-yl]pyridine-3-sulfonamide]
- IC50 [1]: < 500 nM
- melting point: 124 to 127 °C

Compound: CSc1cnc2c(c1)c(C#N)c(-c1ccc(S(=O)(=O)NC3(C(F)(F)F)CC3)cn1)n2C1CCCC1 [Cpd 274, 6-[3-cyano-1-cyclopentyl-5-(methylsulfanyl)-1H-pyrrolo[2,3-b]pyridin-2-yl]-N-[1-(trifluoromethyl)cyclopropyl]pyridine-3-sulfonamide]
- IC50 [1]: < 500 nM
- melting point: 200 to 203 °C

Compound: C[C@H](NS(=O)(=O)c1ccc(-c2c(C#N)c3cc(O)cnc3n2C2CCC2)nc1)C(F)(F)F [Cpd 275, 6-(3-cyano-1-cyclobutyl-5-hydroxy-1H-pyrrolo[2,3-b]pyridin-2-yl)-N-[(2S)-1,1,1-trifluoropropan-2-yl]pyridine-3-sulfonamide]
- IC50 [1]: < 500 nM
- melting point: 240 to 242 °C

Compound: CC[C@H](NS(=O)(=O)c1ccc(-c2c(C#N)c3cc(Cl)cnc3n2C2CCC2)nc1)C(F)(F)F [Cpd 276, 6-(5-chloro-3-cyano-1-cyclobutyl-1H-pyrrolo[2,3-b]pyridin-2-yl)-N-[(2S)-1,1,1-trifluorobutan-2-yl]pyridine-3-sulfonamide]
- IC50 [1]: < 500 nM
- melting point: 186 to 191 °C

Compound: COc1cnc2c(c1)c(C#N)c(-c1cc(C)c(S(=O)(=O)N[C@@H](C)C(F)(F)F)cn1)n2C1CCC1 [Cpd 277, 6-(3-cyano-1-cyclobutyl-5-methoxy-1H-pyrrolo[2,3-b]pyridin-2-yl)-4-methyl-N-[(2S)-1,1,1-trifluoropropan-2-yl]pyridine-3-sulfonamide]
- IC50 [1]: < 500 nM
- melting point: 175 to 179 °C

Compound: Cc1cc(-c2c(C#N)c3cc(Cl)cnc3n2C2CCCC2)ncc1S(=O)(=O)N[C@@H](C)C(F)(F)F [Cpd 278, 6-(5-chloro-3-cyano-1-cyclopentyl-1H-pyrrolo[2,3-b]pyridin-2-yl)-4-methyl-N-[(2S)-1,1,1-trifluoropropan-2-yl]pyridine-3-sulfonamide]
- IC50 [1]: < 500 nM
- melting point: 190 to 195 °C

Compound: CC[C@H](NS(=O)(=O)c1ccc(-c2c(C#N)c3cc(C)cnc3n2C2CCC2)nc1)C(F)(F)F [Cpd 279, 6-(3-cyano-1-cyclobutyl-5-methyl-1H-pyrrolo[2,3-b]pyridin-2-yl)-N-[(2S)-1,1,1-trifluorobutan-2-yl]pyridine-3-sulfonamide]
- IC50 [1]: < 500 nM
- melting point: 138 to 144 °C

Compound: N#Cc1c(-c2ccc(S(=O)(=O)NC3CCC3)cn2)n(C2CCC2)c2ncc(Cl)cc12 [Cpd 283, 6-(5-chloro-3-cyano-1-cyclobutyl-1H-pyrrolo[2,3-b]pyridin-2-yl)-N-cyclobutylpyridine-3-sulfonamide]
- IC50 [1]: < 500 nM
- melting point: 178 to 180 °C

Compound: C[C@H](NS(=O)(=O)c1cnc(-c2c(C#N)c3cc(Cl)cnc3n2C2CCC2)nc1)C(F)(F)F [Cpd 285, 2-(5-chloro-3-cyano-1-cyclobutyl-1H-pyrrolo[2,3-b]pyridin-2-yl)-N-[(2S)-1,1,1-trifluoropropan-2-yl]pyrimidine-5-sulfonamide]
- IC50 [1]: < 500 nM
- melting point: 205 to 207 °C

Compound: CC1(NS(=O)(=O)c2cnc(-c3c(C#N)c4cc(Cl)cnc4n3C3CCC3)nc2)CC1 [Cpd 286, 2-(5-chloro-3-cyano-1-cyclobutyl-1H-pyrrolo[2,3-b]pyridin-2-yl)-N-(1-methylcyclopropyl)pyrimidine-5-sulfonamide]
- IC50 [1]: < 500 nM
- melting point: 237 to 240 °C

Compound: C[C@H](NS(=O)(=O)c1ccc(-c2c(C#N)c3ncc(Cl)cc3n2C2CCCCC2)cc1)C(F)(F)F [Cpd 287, 4-(6-chloro-3-cyano-1-cyclohexyl-1H-pyrrolo[3,2-b]pyridin-2-yl)-N-[(2S)-1,1,1-trifluoropropan-2-yl]benzenesulfonamide]
- IC50 [1]: 500 to 2000 nM
- melting point: 300 to 305 °C
